Assay results published in patent publication US20260014085A1, “MILK DERIVED EXOSOMES AND USES THEREOF” (VIRGINIA TECH INTELLECTUAL PROPERTIES, INC., priority 2022, published 2026).

What was measured:
[1] = system: B5 Clone (High Cx43) MDCK cells; assay: mEV uptake in scratch wound model, B5 Clone (High Cx43) MDCK; type: cell-based, canine
Method: Cells are cultured to confluency, then scratched in low serum conditions (1% NCS), rinsed, and supplied fresh medium with 20 μg/mL CTDR-Tagged mEV's. […] (FIG. 4B) Unwounded Parent (Low Cx43) MDCKs; (FIG. 4C) Wounded Parent (Low Cx43) MDCKs; (FIG. 4D) Unwounded B5 Clone (High Cx43) MDCKs; (FIG. 4E) Wounded B5 Clone (High Cx43) MDCKs. […] (FIG. 4G) Wounded B5 Clone (High Cx43) MDCKs provided mEV's; (FIG. 4H) Wounded B5 Clone (High Cx43) MDCKs provided mEV's and Gap27, a Connexin inhibitor.
FIG. 5A-5C—Milk-Derived Extracellular Vesicle targeting capabilities to high Cx43 expressing B5 Clone MDCKS are completely eliminated via use of exogenous Apyrase. Cells are cultured to confluency, then scratched in low serum conditions (1% NCS), rinsed, and supplied fresh medium with 20 μg/mL CTDR-Tagged mEV's with or without 100 uM Apyrase. (FIG. 5A) Wounded B5 Clone (High Cx43) given CTDR-Tagged mEV's; (FIG. 5B) Wounded B5 Clone (High Cx43) given CTDR tagged mEV's with 100 µM Apyrase.
The associated bar graph for particle count analysis is shown above in FIG. 4A. […] This insinuates that mEV uptake by cells is mediated by Cx43 in both unwounded and wounded situations, with unwounded B5 clone cells experiencing similar uptake levels to that of wounded Parent Lampe cells (FIG. 4A). Applicant then tested for the mechanism of uptake in these cells—B5 clone cells were scratch wounded and given fluorescently tagged mEV's, then some were also provided with Gap27 (FIG. 4F), a known Connexin channel blocker. When co-incubated with Gap27 (D2), mEV uptake was blocked by over 25% (FIG. 4F) when compared to those untreated. […] Another mechanism of uptake of mEV's in a wounded environment that Applicant has discovered is ATP (FIG. 5A-5C).
Small extracellular vesicles known as exosomes (nanovesicles of less than or equal to 150 nm diameter) are secreted by nearly all cell types and are thought to have key assignments in intercellular signaling. Reports that exosomes evade immune detection, show propensity to cross tissue boundaries (e.g., the blood-brain barrier) and can be orally administered has also attracted increasing interest in therapeutic applications, including as drug delivery devices. Applicant recently developed a method for large-scale purification of bovine milk-derived extracellular vesicles (Marsh et al., Nanotheranostics. 2021 Jul. 5; 5(4):488-498. doi: 10.7150/ntno.62213. eCollection 2021). […] Girao and co-workers determined that Connexin 43 (Cx43) is present in exosomes derived from cultured cells expressing Cx43, where this gap junction protein has assignments in cellular uptake of exosomal cargo (Soares et al., Sci Rep. 2015 Aug. 19; 5:13243. doi: 10.1038/srep13243). […]

[2] = system: B5 Clone (High Cx43) MDCK cells; assay: Scratch wound closure (migration index), B5 Clone (High Cx43) MDCK; type: cell-based, canine; conditions: B5 Clone MDCKs, 100 uM Apyrase
Method: FIG. 7A-7L—Milk-Derived Extracellular Vesicles contain endogenous bioactive capabilities in a Scratch-Wounded model of wound healing in Cx43-variable MDCK cells. Cells are cultured to confluency, then scratched in low serum conditions (1% NCS), rinsed, and supplied fresh medium with 20 μg/mL mEV's or 20 uL Vehicle (HEPES buffer). (FIG. 7A) Quantification of wound closure using ImageJ border zone analysis plugin software. Scratches are scanned and imaged at t=0 and scratch size is quantified, then after 8 hours, cells are stopped, fixed and imaged again, then final scratch size is quantified. Migration index is calculated by subtracting the final area from the starting and dividing by the average of vehicle control samples, giving a value of 1.0 for vehicle control. mEV's contain endogenous bioactivity that is Cx43 Dependent, with over 8× healing potential when cells contain enhanced Cx43 levels. […] (FIG. 7G) Quantification of wound closure using ImageJ border zone analysis plugin software. Scratches are scanned and imaged at t=0 and scratch size is quantified, then after 8 hours, cells are stopped, fixed and imaged again, then final scratch size is quantified. […]

Row | Substance | mEV expression with added apyrase ([1]; wounded B5 Clone (High Cx43) MDCKs, 100 uM Apyrase) | reduction in mEV uptake with apyrase ([1]; wounded B5 Clone cells, co-incubated with 100 uM apyrase) [%] | mEV wound healing capabilities with exogenous Apyrase [2] | mEV uptake blocked when co-incubated with Gap27 ([1]; scratch wounded B5 clone cells, compared to untreated) | mEV expression with added Gap27 ([1]; wounded B5 Clone (High Cx43) MDCKs)
1 | Apyrase | significant and complete elimination | > 95 | heavily reduced |  | 
2 | Gap27: a known Connexin channel blocker (TEKTIFIIFML; UniProt P17302 204-214, looked up, fragment) |  |  |  | over 25% | statistical drop
